Assay results as given in ChEMBL document CHEMBL1128088, “Synthesis and activity of cereulide, a cyclic dodecadepsipeptide ionophore as emetic toxin from Bacillus cereus” (1995).

What was measured:
HEp-2 = test: Effect on vacuole response in the HEp-2 cells; type: functional, Homo sapiens
Suncus murinus [1] = test: Effect on latency at dose 16 ug/Kg administered po; type: functional
Suncus murinus [2] = test: Effect on number of vomiting episodes at dose 16 ug/Kg administered ip; type: functional
Suncus murinus [3] = test: Effect on latency at dose 8 ug/Kg administered po; type: functional
Suncus murinus [4] = test: Effect on number of suncus vomited at dose 4 ug/Kg administered ip (out of 5); type: functional
Suncus murinus [5] = test: Effect on latency at dose 8 ug/Kg administered ip; type: functional
Suncus murinus [6] = test: Effect on number of suncus vomited at dose 16 ug/Kg administered po (out of 5); type: functional
Suncus murinus [7] = test: Effect on number of suncus vomited at dose 8 ug/Kg administered ip; type: functional
Suncus murinus [8] = test: Effect on number of vomiting episodes at dose 16 ug/Kg administered po; type: functional
Suncus murinus [9] = test: Effect on number of suncus vomited at dose 32 ug/Kg administered po (out of 5); type: functional
Suncus murinus [10] = test: Effect on latency at dose 32 ug/Kg administered po; type: functional
Suncus murinus [11] = test: Effect on number of vomiting episodes at dose 8 ug/Kg administered ip; type: functional
Suncus murinus [12] = test: Effect on number of suncus vomited at dose 8 ug/Kg administered po (out of 5); type: functional
Suncus murinus [13] = test: Effect on latency at dose 16 ug/Kg administered ip; type: functional
Suncus murinus [14] = test: Effect on number of suncus vomited at dose 16 ug/Kg administered ip (out of 5); type: functional
Suncus murinus [15] = test: Effect on number of vomiting episodes at dose 32 ug/Kg administered po; type: functional
Suncus murinus [16] = test: Effect on number of vomiting episodes at dose 8 ug/Kg administered po; type: functional
Suncus murinus [17] = test: Effect on latency at dose 32 ug/Kg administered ip; type: functional
Suncus murinus [18] = test: Effect on number of suncus vomited at dose 8 ug/Kg administered ip (out of 5); type: functional
Suncus murinus [19] = test: Effect on number of suncus vomited at dose 32 ug/Kg administered ip (out of 5); type: functional
Suncus murinus [20] = test: Effect on latency at dose 4 ug/Kg administered ip; type: functional
Suncus murinus [21] = test: Effect on number of suncus vomited at dose 4 ug/Kg administered po (out of 5); type: functional
Suncus murinus [22] = test: Effect on number of vomiting episodes at dose 4 ug/Kg administered ip; type: functional
Suncus murinus [23] = test: Effect on number of vomiting episodes at dose 32 ug/Kg administered ip; type: functional
Suncus murinus [24] = test: Effect on number of suncus vomited at dose 2 ug/Kg administered ip (out of 3); type: functional

| Structure (SMILES) | Vacuole response (HEp-2) | Latency (Suncus murinus [1]) | No. of vomiting episodes (Suncus murinus [2]) | No. of suncus vomited (Suncus murinus [4]) | Latency (Suncus murinus [5]) | No. of vomiting episodes (Suncus murinus [8]) | Latency (Suncus murinus [10]) | No. of vomiting episodes (Suncus murinus [11]) | No. of suncus vomited (Suncus murinus [12]) | Latency (Suncus murinus [13]) | No. of suncus vomited (Suncus murinus [14]) | No. of vomiting episodes (Suncus murinus [15]) | other results |
| --- | --- | --- | --- | --- | --- | --- | --- | --- | --- | --- | --- | --- | --- |
| CC(C)C[C@@H]1OC(=O)[C@H](C(C)C)NC(=O)[C@@H](C(C)C)OC(=O)[C@@H](C)NC(=O)[C@H](CC(C)C)OC(=O)[C@H](C(C)C)NC(=O)[C@@H](C(C)C)OC(=O)[C@@H](C)NC(=O)[C@H](CC(C)C)OC(=O)[C@H](C(C)C)NC(=O)[C@@H](C(C)C)OC(=O)[C@@H](C)NC1=O (stereo in doubt; form 2) | 3 ng/mL | 8.3 min | 10.3 | 0 | 7 min | 6.3 | 8.2 min | 5 | 0 | 6 min | 5 | 7.6 | Latency (Suncus murinus [3]): 6 min; No. of suncus vomited (Suncus murinus [6]): 3; No. of suncus vomited (Suncus murinus [7]): 1; No. of suncus vomited (Suncus murinus [9]): 5 |
| CC(C)C[C@@H](OC(=O)[C@@H](NC(=O)[C@@H](O)C(C)C)C(C)C)C(=O)N[C@H](C)C(=O)O[C@H](C(=O)N[C@H](C(=O)O[C@H](CC(C)C)C(=O)N[C@H](C)C(=O)O[C@H](C(=O)N[C@H](C(=O)O[C@H](CC(C)C)C(=O)N[C@H](C)C(=O)O)C(C)C)C(C)C)C(C)C)C(C)C | 12000 ng/mL |  |  |  |  |  |  |  |  |  |  |  |  |
| CC(C)C[C@@H]1OC(=O)[C@H](C(C)C)NC(=O)[C@@H](C(C)C)OC(=O)[C@@H](C)NC(=O)[C@H](CC(C)C)OC(=O)[C@H](C(C)C)NC(=O)[C@@H](C(C)C)OC(=O)[C@@H](C)NC(=O)[C@H](CC(C)C)OC(=O)[C@H](C(C)C)NC(=O)[C@@H](C(C)C)OC(=O)[C@@H](C)NC1=O (stereo in doubt; form 1) | 5 ng/mL | 6.3 min | 7.3 | 1 | 5.7 min | 5.3 | 4.4 min | 6.8 | 1 | 5.3 min | 3 | 7 | No. of vomiting episodes (Suncus murinus [16]): 3; Latency (Suncus murinus [17]): 5.9 min; No. of suncus vomited (Suncus murinus [18]): 2; No. of suncus vomited (Suncus murinus [19]): 5; Latency (Suncus murinus [20]): 15 min; No. of suncus vomited (Suncus murinus [21]): 0; No. of vomiting episodes (Suncus murinus [22]): 4; No. of vomiting episodes (Suncus murinus [23]): 8.4; No. of suncus vomited (Suncus murinus [24]): 0 |
| CC(=O)OC[C@@H](C)NC(=O)[C@@H](CC(C)C)OC(=O)[C@@H](NC(=O)[C@@H](OC(=O)[C@@H](C)NC(=O)[C@@H](CC(C)C)OC(=O)[C@@H](NC(=O)[C@@H](OC(=O)[C@@H](C)NC(=O)[C@@H](CC(C)C)OC(=O)[C@@H](NC(=O)[C@@H](OC(C)=O)C(C)C)C(C)C)C(C)C)C(C)C)C(C)C)C(C)C | >20000 ng/mL |  |  |  |  |  |  |  |  |  |  |  |  |
